Data taken from US6482827B1, “Matrix metalloproteinase inhibitors” (Pharmacia & Upjohn S.p.A., priority 1997, dated 2002).
pKi: −log10 of the molar value. ≈ marks a conversion by molar mass, not a printed value.

Tests used:
[1] = molecular target: T1, Human collagenase (MMP-1) (Homo sapiens, UniProt P03956); test: Biochemical assay (Protocol A), Ki at steady state, MMP-1; settings: preincubation, 37° C., pH=7.4, read-out: Ki at steady state (Ki*) for inhibition of MMP-1
T1 sequence (P03956 101-269): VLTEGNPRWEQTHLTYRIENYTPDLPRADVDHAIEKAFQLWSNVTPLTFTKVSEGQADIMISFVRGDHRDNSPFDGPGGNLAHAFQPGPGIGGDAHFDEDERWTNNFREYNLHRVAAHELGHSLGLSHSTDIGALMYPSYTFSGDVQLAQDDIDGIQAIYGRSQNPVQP
Procedure: (§1) Human gelatinase-A (MMP-2) was obtained as pro-enzyme (72 kDa) and was activated with 1 mM 4-aminophenylmercuric acetate for 30 min at 37° C. immediately prior to use. Human stromelysin-1-255 (MMP-3) was obtained as a recombinant pro-enzyme isolated from E. coli and activated by heat (1 h, 55° C.).
(§2) The substrate was the commercial quenched-fluorescence peptide Mca-Pro-Leu-Gly-Leu-Dpa-Ala-Arg-NH2, that is (7-methoxycoumarin4-yl)Acetyl-Pro-Leu-Glv-Leu-(3-[2,4-dinitrophenyl]-L-2,3-diamino-propionyl)-Ala-Arg-NH2 (C. G. Knight et al., FEBS Lett.296:263, 1992). The enzymes cleave at the Gly-Leu bond, removing the internally quenching Dpa group. Release of the highly fluorescent peptide Mca-Pro-Leu was followed fluorimetrically at 37° C. using a Perkin Elmer LS-50 Fluorescence Spectrophotometer fitted with a thermostatted four position stirring cell changer. The excitation wavelength was set at 326 nm (bandwidth 5 nm) and the emission at 392 nm (bandwidth 20 nm). Km values of this substrate for the three MMP's is 70 μM or more (Knight et al., reference above). Substrate concentration was 2 μM in the tests, so that we could approximate to unit the term (1+[substrate]/KM) in calculations. The substrate was stable for over 60 minutes in the assay conditions, giving no appreciable increment of fluorescence. Full response was adjusted against 200 nM Mca-Pro-Leu-OH (the released fluorescent peptide) and the instrument was calibrated in the range 0-100 nM Mca-Pro-Leu-OH, corresponding to 0-5% extent of hydrolysis of the 2 μM substrate. The aqueous assay buffer was 50 mM Tris/HCl pH=7.4 containing 0.15 M NaCl, 10 mM CaCl2, 0.01 mM ZnCl2 and 0.05% Brij 35. The concentration of the activated enzyme was determined by titration against representative inhibitors described in the literature and synthesized in house: Roche Ro31-9790 (N. G. Knebel et al., J. Chromatogr. B 673:213, 1995) for MMP-1, and Celltech CT-1418 (compound 1 in S. K. Chander, J. Pharm. Sci. 84:404, 1995) for MMP-2 and MMP-3. Enzyme concentrations in the tests were set at 1.0 nM for MMP-1, 0.04 nM for MMP-2, and 3.0 nM for M-3. Under our assay conditions, we measured keat/KM values of 26900, 669000 and 9740 1/(M×s) for MMP-1, MMP-2 and MMP-3, respectively. All the three enzymes were found stable for over three hours in the assay conditions.
(§3) The inhibition constant for compounds of the present invention was measured at steady state (Ki*; see J. F. Morrison and C. T. Walsh, Adv. Enzymol. Relat. Areas Mol. Biol. 61:201, 1988), upon preincubation experiment, by measuring V0, the initial rate in the absence of inhibitor, and Vs, the steady-state velocity, at different concentrations of inhibitors in the region of their enzyme-inhibitor dissociation constants.
(§4) On a routine basis, 1.94 mL of assay buffer was pre-heated at 37° C. in a vial, 0.02 mL of inhibitor in DMSO (or DMSO only), and 0.02 ml of 100 nM MMP-1 or 4 nM MMP-2 or 300 nM MMP-3 were added, mixed, and the vial was held at 37° C. for 5-180 minutes. Then 0.02 ml of 0.2 mM substrate was added, mixed and transferred into a pre-heated cell. The sample was allowed to equilibrate in the cuvette for 3-5 min at 37° C. against small changes in temperature and changes in the enzyme-inhibitor equilibria related to addition of substrate. After that, the linear increase of fluorescence was monitored over 3-5 min, and the slope (Vo or Vs) was obtained. Inhibitor concentrations were varied to collect data over Vs/Vo ratio ranging from 0.05 to 0.95. The values of Ki* were calculated by nonlinear weighted regression to the tight-binding equation according to Morrison and Walsh above:
(§5) Vs/Vo=[1/(2×Et)]×SQR[(Ki*+It−Et)^2+4×Ki*×Et]−(Ki*+It−Et)
(§6) wherein Et is the total enzyme concentration, and It is the total inhibitor concentration. The following Table I lists Ki* obtained for some representative examples: […]

Aqueous solubility = type: physicochemical; settings: 25° C.; for solubility: water
[2] = molecular target: T2, Human gelatinase-A (MMP-2) (Homo sapiens, UniProt P08253); test: Biochemical assay (Protocol A), Ki at steady state, MMP-2; settings: preincubation, 37° C., pH=7.4, read-out: Ki at steady state (Ki*) for inhibition of MMP-2
T2 sequence (P08253 110-660): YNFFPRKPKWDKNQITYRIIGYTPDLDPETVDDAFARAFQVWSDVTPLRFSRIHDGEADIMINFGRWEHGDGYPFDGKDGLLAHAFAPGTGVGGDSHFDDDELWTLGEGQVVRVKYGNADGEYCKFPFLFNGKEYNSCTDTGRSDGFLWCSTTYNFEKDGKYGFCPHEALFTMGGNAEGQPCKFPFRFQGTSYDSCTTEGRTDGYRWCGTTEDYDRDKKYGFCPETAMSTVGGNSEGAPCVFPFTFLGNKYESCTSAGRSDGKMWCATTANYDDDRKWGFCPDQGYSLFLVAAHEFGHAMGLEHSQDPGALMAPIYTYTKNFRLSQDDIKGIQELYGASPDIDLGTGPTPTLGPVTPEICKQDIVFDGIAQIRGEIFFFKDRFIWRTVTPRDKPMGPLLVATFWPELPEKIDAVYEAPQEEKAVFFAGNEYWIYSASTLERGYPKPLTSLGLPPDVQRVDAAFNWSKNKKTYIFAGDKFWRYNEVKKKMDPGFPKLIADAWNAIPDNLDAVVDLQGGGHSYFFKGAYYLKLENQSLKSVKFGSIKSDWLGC
Procedure: as §1, §2, §3, §4, §5, §6

[3] = molecular target: T3, Human stromelysin-1-255 (MMP-3) (Homo sapiens, UniProt P08254); test: Biochemical assay (Protocol A), Ki at steady state, MMP-3; settings: preincubation, 37° C., pH=7.4, read-out: Ki at steady state (Ki*) for inhibition of MMP-3
T3 construct: host or cells: E. coli
T3 sequence (P08254 100-255 limits assumed): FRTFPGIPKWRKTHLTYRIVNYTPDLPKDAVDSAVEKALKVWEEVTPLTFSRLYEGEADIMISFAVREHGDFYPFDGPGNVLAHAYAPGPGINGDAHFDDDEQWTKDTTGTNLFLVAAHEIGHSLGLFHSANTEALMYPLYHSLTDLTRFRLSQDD
Procedure: as §1, §2, §3, §4, §5, §6

[4] = PK parameters in rats, iv route; settings: rat, in vivo, 10-15 mg/kg
Procedure: As a further example, Table 3 reports clearance and AUC values measured after intravenous administration to rats of a […] of some representative compounds of the present invention.

[5] = PK parameters, oral route, rat; type: in vivo; settings: 10-15 mg/kg; for bioavailability: read-out: % F (oral bioavailability)
Procedure: (§7) As an additional example, Table 4 reports the maximum plasma concentration (Cmax) and oral bioavailability (% F; calculated from dose-normalised ratio of oral to i.v. mean AUC values) after oral administration to rats or cynomolgus monkeys of a […] of some representative compounds of the present invention.

[6] = PK parameters, oral route, cynomolgus monkey; type: in vivo; settings: 10-15 mg/kg
Procedure: as §7

[7] = plasma, dose-normalised ratio of oral to i.v. mean AUC
[8] = dose-normalised ratio of oral to i.v. mean AUC

Question: Which results are given for `CC(C)C[C@@H](C(=O)N1CCCCC1)[C@H](NC(=O)OC(C)(C)C)C(=O)NO` [Example 2, (3S-tert-Butoxycarbonylamino-4-hydroxyamino-2R-isobutyl)succinyl-piperidinamide]?
Answer: pKi [1]: 5.96; solubility (Aqueous solubility; Conditions A): > 4500 µg/mL; pKi [2]: 5.55; pKi [3]: 4.89

Question: With `CC(C)C[C@@H](C(=O)N1CCCCC1)[C@H](N)C(=O)NO` [Example 3, (3S-Amino-4-hydroxyamino-2R-isobutyl)succinyl-piperidinamide] as the compound, how does the pKi [1] read?
Answer: 7.06

Question: What about the solubility (Aqueous solubility; Conditions A) of the same compound?
Answer: > 9500 µg/mL

Question: And the pKi [2]?
Answer: 6.54

Question: And the pKi [3]?
Answer: 5.60

Question: With `CC(C)C[C@@H](C(=O)N1CCCCC1)[C@@H](C(=O)NO)N(C)C` [Example 5, (3SN,N-Dimethylamino-4-hydroxyamino-2R-isobutyl)succinyl-piperidinamide] as the compound, how does the pKi [1] read?
Answer: 7.21

Question: What about the solubility (Aqueous solubility; Conditions B) of the same compound?
Answer: > 6000 µg/mL

Question: And the pKi [2]?
Answer: 6.51

Question: What about the pKi [3] of the same compound?
Answer: 6.03

Question: With `COc1ccc(S(=O)(=O)N[C@H](C(=O)NO)[C@@H](CC(C)C)C(=O)N2CCCCC2)cc1` [Example 7, (4-Hydroxyamino-3S-(4-methoxyphenylsulfonyl)amino-2R-isobutyl)succinyl-piperidin-amide] as the compound, how does the pKi [1] read?
Answer: 7.15

Question: And the solubility (Aqueous solubility; Conditions A)?
Answer: 4000 µg/mL (≈ 9.06 mM)

Question: And the pKi [2]?
Answer: 6.60

Question: What about the pKi [3] of the same compound?
Answer: 6.14

Question: Which results are given for `CC(C)C[C@@H](C(=O)N1CCOCC1)[C@H](N)C(=O)NO` [Example 10, (3S-Amino-4-hydroxyamino-2R-isobutyl)succinyl-morpholinamide]?
Answer: pKi [1]: 6.74; AUC [4]: 11100 ng·h/mL; clearance [4]: 24 mL/min/kg; pKi [2]: 6.47; pKi [3]: 5.66; bioavailability [5, 7]: 28%; Cmax ([5]; plasma, read-out: Cmax): 2120 ng/mL

Question: With `Cc1ccc(S(=O)(=O)N[C@H](C(=O)NO)[C@@H](CC(C)C)C(=O)N2CCOCC2)cc1` [Example 12, (4-Hydroxyamino-2R-isobutyl-3S-(4-toluenesulfonyl)amino)succinyl-morpholinamide] as the compound, how does the pKi [1] read?
Answer: 7.39

Question: And the AUC [4]?
Answer: 6580 ng·h/mL

Question: And the clearance [4]?
Answer: 39 mL/min/kg

Question: What about the pKi [2] of the same compound?
Answer: 6.72

Question: And the pKi [3]?
Answer: 6.42

Question: And the bioavailability [5, 7]?
Answer: 21%

Question: What about the Cmax ([5]; plasma, read-out: Cmax) of the same compound?
Answer: 2440 ng/mL

Question: For `COc1ccc(CCC[C@@H](C(=O)N2CCOCC2)[C@H](NC(=O)OC(C)(C)C)C(=O)O)cc1` [Example 13, (3S-tert-Butoxycarbonylamino-4-hydroxy-2R-(4-methoxy)phenpropyl)succinyl-morpholinamide], which Aqueous solubility (Aqueous solubility; Conditions A) is on record?
Answer: 6710 µg/mL

Question: With `COc1ccc(CCC[C@@H](C(=O)N2CCOCC2)[C@H](N)C(=O)O)cc1` [Example 14, (3S-Amino-4-hydroxy-2R-(4-methoxy)phenpropyl)succinyl-morpholinamide] as the compound, how does the Aqueous solubility (Aqueous solubility; Conditions B) read?
Answer: >14000 µg/mL

Question: With `COc1ccc(CCC[C@@H](C(=O)N2CCOCC2)[C@H](N)C(=O)NO)cc1` [Example 16, (3S-Amino-4-hydroxyamino-2R-(4-methoxy)phenpropyl)succinyl-morpholinamide] as the compound, how does the pKi [1] read?
Answer: 5.19

Question: What about the solubility (Aqueous solubility; Conditions B) of the same compound?
Answer: > 9600 µg/mL

Question: And the pKi [2]?
Answer: 7.03

Question: And the pKi [3]?
Answer: 5.62

Question: Which results are given for `COc1ccc(CCC[C@@H](C(=O)N2CCCCC2)[C@H](N)C(=O)NO)cc1` [Example 18, (3S-Amino-4-hydroxyamino-2R-(4-methoxy)phenpropyl)succinyl-piperidinamide]?
Answer: pKi [1]: 6.07; solubility (Aqueous solubility; Conditions B): > 9600 µg/mL; pKi [2]: 7.10; pKi [3]: 6.07

Question: What does the source list for `COc1ccc(CCC[C@@H](C(=O)N2CCOCC2)[C@@H](C(=O)NO)N(C)C)cc1` [Example 19, (3S-N,N-Dimethylamino-4-hydroxyamino-2R-(4-methoxy)phenpropyl)succinyl-morpholinamide]?
Answer: pKi [1]: 5.35; solubility (Aqueous solubility; Conditions A): 7500 µg/mL (≈ 19.1 mM); AUC [4]: 9380 ng·h/mL; clearance [4]: 27 mL/min/kg; pKi [2]: 6.64; pKi [3]: 5.96

Question: Which results are given for `N[C@H](C(=O)NO)[C@@H](CC1CCCC1)C(=O)N1CCCCC1` [Example 22, (3S-Amino-2R-cyclopentylmethyl-4-hydroxyamino)succinyl-piperidinamide]?
Answer: pKi [1]: 7.82; solubility (Aqueous solubility; Conditions B): > 8200 µg/mL; pKi [2]: 7.17; pKi [3]: 6.14; bioavailability [5, 7]: 62%; Cmax ([5]; plasma, read-out: Cmax): 5490 ng/mL

Question: With `CS(=O)(=O)N[C@H](C(=O)NO)[C@@H](CC1CCCC1)C(=O)N1CCN(Cc2ccc3c(c2)OCO3)CC1` [Example 47, (2R-Cyclopentylmethyl-4-hydroxyamino-3S-(methylsulfonyl)amino)succinyl-(4-piperonyl)piperazinamide] as the compound, how does the pKi [1] read?
Answer: 8.34

Question: And the pKi [2]?
Answer: 7.55

Question: What about the pKi [3] of the same compound?
Answer: 6.85

Question: With `C[C@@H](NC(=O)[C@H](CC1CCCC1)[C@H](N)C(=O)NO)C1CCCCC1` [Example 50, (3S-Amino-2R-cyclopentylmethyl-4-hydroxyamino)succinyl-(1R-cyclohexylethyl)amide] as the compound, how does the pKi [1] read?
Answer: 7.59

Question: What about the pKi [2] of the same compound?
Answer: 7.24

Question: And the Cmax [6]?
Answer: 49516 ng/mL

Question: What about the “% F (oral bioavailability)” value [6, 8] of the same compound?
Answer: 70%

Question: And the pKi [3]?
Answer: 6.31

Question: And the Cmax [5]?
Answer: 3146 ng/mL

Question: And the “% F (oral bioavailability)” value [5, 8]?
Answer: 50%
